The results in this text go back to the NIST ThermoML archive (doi:10.1016/j.jct.2018.09.003).

± gives the expanded uncertainty stated by the source.

What is called mass density is the mass of a sample divided by its volume.

The conditions of the data set: 101.33 kPa, Liquid, Vibrating tube method.

With `CCCCCCCCn1cc[n+](C)c1C.F[B-](F)(F)F` [1-octyl-2,3-dimethylimidazolium tetrafluoroborate], the mass density is, setting by setting: (313.15 K) 1092.3 ± 2.5 kg/m3; (323.15 K) 1086 ± 2.5 kg/m3; (333.15 K) 1079.7 ± 2.5 kg/m3; (343.15 K) 1073.3 ± 2.5 kg/m3; (353.15 K) 1067 ± 2.5 kg/m3.
